# Assay results taken from patent publication US20230365592A1 (Agios Pharmaceuticals, Inc., priority 2022, published 2023).
# Target: T1, human PAH with the R408W mutation (Homo sapiens, UniProt P00439, R408W)
# T1 construct: expressed in transfected cells
# T1 sequence (P00439 1-452 R408W): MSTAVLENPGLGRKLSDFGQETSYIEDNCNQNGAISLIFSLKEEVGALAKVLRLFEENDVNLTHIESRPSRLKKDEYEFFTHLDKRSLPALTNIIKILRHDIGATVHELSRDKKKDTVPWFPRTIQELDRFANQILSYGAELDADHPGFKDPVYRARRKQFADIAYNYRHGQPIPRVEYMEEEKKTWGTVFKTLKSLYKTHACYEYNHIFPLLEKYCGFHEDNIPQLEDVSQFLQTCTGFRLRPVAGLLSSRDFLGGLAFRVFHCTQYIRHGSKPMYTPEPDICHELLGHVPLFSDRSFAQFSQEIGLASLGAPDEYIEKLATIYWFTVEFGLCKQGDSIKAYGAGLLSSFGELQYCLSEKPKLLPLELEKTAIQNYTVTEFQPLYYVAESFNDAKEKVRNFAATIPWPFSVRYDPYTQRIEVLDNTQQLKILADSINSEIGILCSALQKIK
# Experiment: Cell Based Phenylalanine Flux Assay;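 further: after compound treatment, cells received sepiapterin plus isotope-labelled Phenylalanine for 4 hours, then labelled Tyrosine in the medium was quantified, 10-point 2-fold dilution series run in duplicate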
# Conditions: A375 cells expressing R408W PAH; 24 hrs with compound, then 20 µM sepiapterin and 800 µM 13C9,15N-Phenylalanine for 4 hours; 13C-Tyrosine by LC-MS; average where tested multiple times; read-out: AC50
row,AC50 [µM],Structure (SMILES)
1,1 to 5,Cc1nnc(C(=O)N2CCc3[nH]cnc3C2c2cc3ccc(C(F)(F)F)cn3n2)o1 (centres unmarked)
2,1 to 5,O=C(c1nnc(NC2CC2)o1)N1CCc2[nH]cnc2C1c1cc2ccccn2n1 (centres unmarked)
3,1 to 5,Cc1nc(C(C)O)oc1C(=O)N1CCc2[nH]cnc2C1c1cc2cccc(C)n2n1 (centres unmarked)
4,> 5,c1cncc(-c2nnc(N3CCc4[nH]cnc4C3c3cc4ccccn4n3)o2)c1 (centres unmarked)
5,1 to 5,Cn1cnc(-c2nnc(C(=O)N3CCc4[nH]cnc4C3c3cc4c(C(F)F)cccn4n3)o2)c1 (centres unmarked)
6,1 to 5,O=C(c1ocnc1C(F)F)N1CCc2[nH]cnc2C1c1cc2c(Cl)cccn2n1 (centres unmarked)
7,1 to 5,Cn1nc(C(F)(F)F)nc1C(=O)N1CCc2[nH]cnc2C1c1cc2cccc(C(F)(F)F)n2n1 (centres unmarked)
8,> 5,CC(C)(F)c1nnc(N2CCc3[nH]cnc3C2c2cc3c(C(F)F)cccn3n2)o1 (centres unmarked)
9,> 5,Cn1cc(-c2nc(C3CC3)c(C(=O)N3CCc4[nH]cnc4C3c3cc4ccccn4n3)o2)cn1 (centres unmarked)
10,1 to 5,Cc1c(C2c3nc[nH]c3CCN2C(=O)c2nnc(-c3cnn(C)c3)o2)nn2ccccc12 (centres unmarked)
11,1 to 5,Clc1cccn2nc(C3c4nc[nH]c4CCN3c3nnc(-c4ncccn4)o3)cc12 (centres unmarked)
12,1 to 5,Cn1ncnc1C(=O)N1CCc2[nH]cnc2C1c1cc2cccc(Cl)n2n1 (centres unmarked)

# Same assay, conditions: A375 cells expressing human PAH R408W; 24 hrs compound incubation; 13C-Tyrosine by LC-MS; average where tested multiple times; read-out: AC50
row,AC50 [µM],Structure (SMILES)
1,< 0.5,"c1cnc(N2CCc3[nH]cnc3[C@H]2c2cc3c(C4CC4)cccn3n2)nc1 [Example 2172, (S)-4-(4-cyclopropylpyrazolo[1,5-a]pyridin-2-yl)-5-(pyrimidin-2-yl)-4,5,6,7-tetrahydro-1H-imidazo[4,5-c]pyridine]"
2,> 5,"CC(C)c1cccn2nc([C@H]3c4nc[nH]c4CCN3c3nnc(-c4cccnc4)o3)cc12 [Example 2260, (R)-2-(4-(4-isopropylpyrazolo[1,5-a]pyridin-2-yl)-1,4,6,7-tetrahydro-5H-imidazo[4,5-c]pyridin-5-yl)-5-(pyridin-3-yl)-1,3,4-oxadiazole]"
3,> 5,"FC(F)(F)c1cccn2nc([C@H]3c4nc[nH]c4CCN3c3ccccn3)cc12 [Example 1871, (R)-5-(pyridin-2-yl)-4-(4-(trifluoromethyl)pyrazolo[1,5-a]pyridin-2-yl)-4,5,6,7-tetrahydro-1H-imidazo[4,5-c]pyridine]"
4,1 to 5,"FC(F)(F)c1cccc2cc([C@@H]3c4nc[nH]c4CCN3c3nnc(-c4ccccn4)o3)nn12 [Example 2440, (S)-2-(pyridin-2-yl)-5-(4-(7-(trifluoromethyl)pyrazolo[1,5-a]pyridin-2-yl)-6,7-dihydro-1H-imidazo[4,5-c]pyridin-5(4H)-yl)-1,3,4-oxadiazole]"
5,< 0.5,"FC(F)(F)c1cccn2nc([C@@H]3c4nc[nH]c4CCN3c3cnccn3)cc12 [Example 1819, (S)-5-(pyrazin-2-yl)-4-(4-(trifluoromethyl)pyrazolo[1,5-a]pyridin-2-yl)-4,5,6,7-tetrahydro-1H-imidazo[4,5-c]pyridine]"

# Same assay, conditions: A375 cells expressing human R408W PAH; 24 hrs compound incubation; 13C-Tyrosine by LC-MS; average where tested multiple times; read-out: AC50
row,AC50 [µM],Structure (SMILES)
1,> 5,"O=C(c1nnc(-c2cccnc2)o1)N1CCc2[nH]cnc2[C@@H]1c1cc2cccc(C(F)F)n2n1 [Example 1469, (R)-(4-(7-(difluoromethyl)pyrazolo[1,5-a]pyridin-2-yl)-6,7-dihydro-1H-imidazo[4,5-c]pyridin-5(4H)-yl)(5-(pyridin-3-yl)-1,3,4-oxadiazol-2-yl)methanone]"
2,0.5 to 1,"N#Cc1ncoc1C(=O)N1CCc2[nH]cnc2[C@H]1c1cc2ccc(Br)cn2n1 [Example 682, (S)-5-(4-(6-bromopyrazolo[1,5-a]pyridin-2-yl)-4,5,6,7-tetrahydro-1H-imidazo[4,5-c]pyridine-5-carbonyl)oxazole-4-carbonitrile]"
3,< 0.5,"N#Cc1ncoc1C(=O)N1CCc2[nH]cnc2[C@H]1c1cc2c(Cl)cccn2n1 [Example 686, (S)-5-(4-(4-chloropyrazolo[1,5-a]pyridin-2-yl)-4,5,6,7-tetrahydro-1H-imidazo[4,5-c]pyridine-5-carbonyl)oxazole-4-carbonitrile]"
4,0.5 to 1,"Cc1cccn2nc([C@@H]3c4nc[nH]c4CCN3C(=O)c3nnc(-c4ncccn4)o3)cc12 [Example 1311, (S)-(4-(4-methylpyrazolo[1,5-a]pyridin-2-yl)-6,7-dihydro-1H-imidazo[4,5-c]pyridin-5(4H)-yl)(5-(pyrimidin-2-yl)-1,3,4-oxadiazol-2-yl)methanone]"
5,< 0.5,"Cn1cc(-c2nnc(C(=O)N3CCc4[nH]cnc4[C@H]3c3cc4cccc(Cl)n4n3)o2)cn1 [Example 1066, (S)-(4-(7-chloropyrazolo[1,5-a]pyridin-2-yl)-6,7-dihydro-1H-imidazo[4,5-c]pyridin-5(4H)-yl)(5-(1-methyl-1H-pyrazol-4-yl)-1,3,4-oxadiazol-2-yl)methanone]"
6,> 5,"O=C(c1nnc(-c2cccnc2)o1)N1CCc2[nH]cnc2[C@@H]1c1cc2c(F)cccn2n1 [Example 897, (R)-(4-(4-fluoropyrazolo[1,5-a]pyridin-2-yl)-6,7-dihydro-1H-imidazo[4,5-c]pyridin-5(4H)-yl)(5-(pyridin-3-yl)-1,3,4-oxadiazol-2-yl)methanone]"
7,0.5 to 1,"Cc1cccc2cc([C@@H]3c4nc[nH]c4CCN3C(=O)c3cnn4cc(N(C)C)ccc34)nn12 [Example 1794, (S)-(6-(dimethylamino)pyrazolo[1,5-a]pyridin-3-yl)(4-(7-methylpyrazolo[1,5-a]pyridin-2-yl)-6,7-dihydro-1H-imidazo[4,5-c]pyridin-5(4H)-yl)methanone]"
8,< 0.5,"O=C(c1oc(C2CC2)nc1C(F)F)N1CCc2[nH]cnc2[C@H]1c1cc2ccccn2n1 [Example 632, (S)-(2-cyclopropyl-4-(difluoromethyl)oxazol-5-yl)(4-(pyrazolo[1,5-a]pyridin-2-yl)-6,7-dihydro-1H-imidazo[4,5-c]pyridin-5(4H)-yl)methanone]"
9,> 5,"Cc1ccc2c(C(=O)N3CCc4[nH]cnc4[C@@H]3c3cc4c(C(F)F)cccn4n3)cnn2c1 [Example 1713, (R)-(4-(4-(difluoromethyl)pyrazolo[1,5-a]pyridin-2-yl)-6,7-dihydro-1H-imidazo[4,5-c]pyridin-5(4H)-yl)(6-methylpyrazolo[1,5-a]pyridin-3-yl)methanone]"
10,1 to 5,"O=C(c1cn(-c2ccccn2)nc1Cl)N1CCc2[nH]cnc2[C@H]1c1cc2ccccn2n1 [Example 674, (S)-(3-chloro-1-(pyridin-2-yl)-1H-pyrazol-4-yl)(4-(pyrazolo[1,5-a]pyridin-2-yl)-6,7-dihydro-1H-imidazo[4,5-c]pyridin-5(4H)-yl)methanone]"
11,> 5,"O=C(c1nnc(C2CC2)o1)N1CCc2[nH]cnc2[C@@H]1c1cc2ccccn2n1 [Example 621, (R)-(5-cyclopropyl-1,3,4-oxadiazol-2-yl)(4-(pyrazolo[1,5-a]pyridin-2-yl)-6,7-dihydro-1H-imidazo[4,5-c]pyridin-5(4H)-yl)methanone]"
12,< 0.5,"Cc1nc(C(C)(C)F)oc1C(=O)N1CCc2[nH]cnc2[C@H]1c1cc2c(Cl)cccn2n1 [Example 1276, (S)-(4-(4-chloropyrazolo[1,5-a]pyridin-2-yl)-6,7-dihydro-1H-imidazo[4,5-c]pyridin-5(4H)-yl)(2-(2-fluoropropan-2-yl)-4-methyloxazol-5-yl)methanone]"
13,< 0.5,"O=C(c1cnn2cc(-c3ccccn3)ccc12)N1CCc2[nH]cnc2[C@H]1c1cc2c(F)cccn2n1 [Example 1644, (S)-(4-(4-fluoropyrazolo[1,5-a]pyridin-2-yl)-6,7-dihydro-1H-imidazo[4,5-c]pyridin-5(4H)-yl)(6-(pyridin-2-yl)pyrazolo[1,5-a]pyridin-3-yl)methanone]"
14,< 0.5,"O=C(c1nnc(-c2ccn(C(F)F)n2)o1)N1CCc2[nH]cnc2[C@H]1c1cc2c(OC(F)(F)F)cccn2n1 [Example 1704, (S)-(5-(1-(difluoromethyl)-1H-pyrazol-3-yl)-1,3,4-oxadiazol-2-yl)(4-(4-(trifluoromethoxy)pyrazolo[1,5-a]pyridin-2-yl)-6,7-dihydro-1H-imidazo[4,5-c]pyridin-5(4H)-yl)methanone]"
15,> 5,"Cc1cccn2nc([C@H]3c4nc[nH]c4CCN3C(=O)c3nnc(C(C)(C)F)o3)cc12 [Example 923, (R)-(5-(2-fluoropropan-2-yl)-1,3,4-oxadiazol-2-yl)(4-(4-methylpyrazolo[1,5-a]pyridin-2-yl)-6,7-dihydro-1H-imidazo[4,5-c]pyridin-5(4H)-yl)methanone]"
16,< 0.5,"Cc1ncoc1C(=O)N1CCc2[nH]cnc2[C@H]1c1cc2ccccn2n1 [Example 606, (S)-(4-methyloxazol-5-yl)(4-(pyrazolo[1,5-a]pyridin-2-yl)-6,7-dihydro-1H-imidazo[4,5-c]pyridin-5(4H)-yl)methanone]"
17,0.5 to 1,"CC(C)(C)c1nnc(C(=O)N2CCc3[nH]cnc3[C@H]2c2cc3ccc(F)cn3n2)o1 [Example 1124, (S)-(5-(tert-butyl)-1,3,4-oxadiazol-2-yl)(4-(6-fluoropyrazolo[1,5-a]pyridin-2-yl)-6,7-dihydro-1H-imidazo[4,5-c]pyridin-5(4H)-yl)methanone]"
18,0.5 to 1,"Cc1cccc2cc([C@@H]3c4nc[nH]c4CCN3C(=O)c3cnn4cc(CN(C)C)ccc34)nn12 [Example 1690, (S)-(6-((dimethylamino)methyl)pyrazolo[1,5-a]pyridin-3-yl)(4-(7-methylpyrazolo[1,5-a]pyridin-2-yl)-6,7-dihydro-1H-imidazo[4,5-c]pyridin-5(4H)-yl)methanone]"
